Here are results for 5 compounds from patent US20100190199A1, “GPR30 ESTROGEN RECEPTOR IN BREAST AND OVARIAN CANCERS” (Rhode Island Hospital, priority 2008, published 2010).

One assay has as its system alpha and beta ERs. To be noted: cited from earlier work.
The subject of the next assay is EGFR. To be noted: breast cancer cells; behave similarly to estradiol; cited from earlier work.
The target in a further assay is T1, GPR30 (Homo sapiens, UniProt Q99527).
T1 construct: human SKBR3 breast cancer cells (Erα^−, ERβ^−, GPR30^+); endogenous in cells
T1 sequence (Q99527 whole entry): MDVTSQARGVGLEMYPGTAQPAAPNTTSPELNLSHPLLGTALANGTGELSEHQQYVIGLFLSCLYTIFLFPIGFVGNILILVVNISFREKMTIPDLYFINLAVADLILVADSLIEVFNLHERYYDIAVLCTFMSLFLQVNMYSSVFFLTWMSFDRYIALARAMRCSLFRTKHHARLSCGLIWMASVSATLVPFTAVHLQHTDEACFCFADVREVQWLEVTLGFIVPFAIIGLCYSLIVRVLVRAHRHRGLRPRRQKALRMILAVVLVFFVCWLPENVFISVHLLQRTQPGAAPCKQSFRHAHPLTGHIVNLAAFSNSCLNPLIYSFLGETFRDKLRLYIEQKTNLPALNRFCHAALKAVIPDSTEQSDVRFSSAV
Kind of assay: Estrogen-mediated fibronectin (FN) matrix assembly by human breast cancer cells. Format: cell-based. To be noted: stimulation of human breast cancer cells.

In a further assay the test system is ER+ ovarian cancer. To be noted: ovarian cancer patients, second-line therapy, Phase II; cited from earlier work.

The structures appear in SMILES notation.

Turning to `C[C@]12CC[C@@H]3c4ccc(O)cc4CC[C@H]3[C@@H]1CC[C@@H]2O` [17β-estradiol], the “Binding preference ERα versus ERβ” value with alpha and beta ERs is reported as “binds equally well to both receptors”.
As to `C[C@]12CC[C@@H]3c4ccc(O)cc4C[C@@H](CCCCCCCCC[S+]([O-])CCCC(F)(F)C(F)(F)F)[C@H]3[C@@H]1CC[C@@H]2O` (stereo partly drawn) [ICI 182,780], the EGFR activation entry with EGFR is “capable of triggering EGFR activation in breast cancer cells”. On GPR30, the “FN matrix assembly: recruitment of FN-engaged integrin α5β1 conformers to fibrillar adhesions and synthesis of FN fibrils” value is “resulted in the recruitment of FN-engaged integrin α5β1 conformers to fibrillar adhesions and the synthesis of FN fibrils”.
On to `N#Cc1ccc(C(c2ccc(C#N)cc2)n2cncn2)cc1` [Letrozole], for which the “Clinical response measured by ovarian cancer serum marker CA-125” value with ER+ ovarian cancer is given as “stable disease”.
For `O=C(c1ccc(OCCN2CCCCC2)cc1)c1c(-c2ccc(O)cc2)sc2cc(O)ccc12` [raloxifene], the “Binding preference ERα versus ERβ” value in the assay on alpha and beta ERs is reported as “bind preferentially to the alpha receptor”.
In the case of `CC/C(=C(\c1ccccc1)c1ccc(OCCN(C)C)cc1)c1ccccc1` [tamoxifen], the EGFR activation result in the assay with EGFR is recorded as “capable of triggering EGFR activation in breast cancer cells”.
